Experimental data from US8071290B2, “Hypermethylation of GATA-4 and GATA-5 transcription factor genes in cancer” (Johns Hopkins University School of Medicine, priority 2003, dated 2011).
Marks after values point to notes of the source that are not given here.

What was measured:
Type in all cases: cell-based, human
[1] = system: Gastric cancer cells, AZ521; assay: TSA alone or low dose DAC plus TSA, RT-PCR of GATA-4 and GATA-5
Method: (§1) The CRC and Az521 cell lines were grown in DMEM, MEM or McCoy's medium supplemented with 10% fetal bovine serum, penicillin and streptomycin. For demethylation studies, cells were treated daily with […] 5-aza-2′deoxycytidine (DAC; Sigma Chemical Co.; St. Louis Mo.) for 48 hr (41). Az521 and HCT116 cells also were treated with the histone deacetylase inhibitor, TSA (Wako), alone, or with a combination of DAC plus TSA (41; 6). Total RNA was isolated using the TRIZOL reagent (Invitrogen Corp.; Carlsbad Calif.).
For RT-PCR, 2 μg of total RNA was reverse transcribed using the SUPERSCRIPT reverse transcription kit (Invitrogen); all genes were amplified with multiple cycle numbers (28-35 cycles) for obtaining semi-quantitative differences in their expression levels. Primer pairs for GATA-1 to GATA-6 and for the GATA-5 target genes are shown in Table 2 (see, also, Bai et al., Mol. Carcinog. 28:184-188, 2000, which is incorporated herein by reference). Annealing was performed at the indicated temperatures, and PCR was performed for the indicated number of cycles (Table 2, below). […]
GATA-4, GATA-5and GATA-6 expression was examined in gastrointestinal cancer cell lines. […] PCR products recognizing unmethylated and methylated CpG sites were analyzed in 2.5% agarose gels stained by ethidium bromide.

[2] = system: SW480 colon cancer cell line; assay: DAC treatment, gene expression by RT-PCR in SW480; parameters: key: −: Undetectable level; +: detectable level of expression, by RT-PCR; ++: increased expression level from +basal level; conditions: 5 pM DAC daily for 48 hr
Method: as §1
(§2) For RT-PCR, 2 μg of total RNA was reverse transcribed using the SUPERSCRIPT reverse transcription kit (Invitrogen); all genes were amplified with multiple cycle numbers (28-35 cycles) for obtaining semi-quantitative differences in their expression levels. Primer pairs for GATA-1 to GATA-6 and for the GATA-5 target genes are shown in Table 2 (see, also, Bai et al., Mol. Carcinog. 28:184-188, 2000, which is incorporated herein by reference). Annealing was performed at the indicated temperatures, and PCR was performed for the indicated number of cycles (Table 2, below). PCR conditions were as follows: first denature, 95° C., 5 min; denature, 95° C., 1 min; anneal, temperature shown in Table 2 (° C.), 1 min; extension, 72° C., 1 min; final extension, 72° C., 10 min.
(§3) GATA-4, GATA-5and GATA-6 expression was examined in gastrointestinal cancer cell lines. GATA-4, GATA-5 and GATA-6 expression levels were examined by RT-PCR in seven cancer cell lines (colon cancer cell lines RKO, DLD1, HCT116, HT29, LoVo, and SW480; and gastric cancer cell line AZ521) with or without (mock) treatment with 5′-aza-2′-deoxycytidine (DAC) and in normal colonic mucosa (NC) and peripheral blood lymphocytes (PBL). GAPDH expression was used for an internal loading control for the RT-PCR. Gastric cancer cells, AZ521, were treated with low dose DAC alone, TSA alone, or a combination of these two drugs (A/T), or were mock treated, and examined by RT-PCR. GATA-4 and GATA-5 expression were examined in wild type (WT) HCT116 colon cancer cells, and two clones each of these cells in which both alleles of DNA methyltransferase 1 (DNMTI-KO), DNMT 3b (DNMT3b-KO), or both DNMTs were knocked out (21). PCR products recognizing unmethylated and methylated CpG sites were analyzed in 2.5% agarose gels stained by ethidium bromide.

[3] = system: AZ521 gastric cancer cell line; assay: DAC treatment, gene expression by RT-PCR in AZ521; parameters: key to GATA-4 expression (Exp, A = DAC treatment) / GATA-5 expression (Exp, A = DAC treatment) / GATA-6 expression (Exp, A = DAC treatment) / TFF1 expression (Exp, A = DAC treatment) / TFF2 expression (Exp, A = DAC treatment) / TFF3 expression (Exp, A = DAC treatment) / Inhibin α expression (Exp, A = DAC treatment) / Dab2 expression (Exp, A = DAC treatment): −: Undetectable level; +: detectable level of expression, by RT-PCR; ++: increased expression level from +basal level
Method: as §1, §2, §3

[4] = system: colon cancer cell lines RKO, DLD1, HCT116, HT29, LoVo, and SW480; and gastric cancer cell line AZ521; assay: DAC treatment of the seven cancer cell lines, RT-PCR
Method: as §1, §2
as §3, with “GATA-4 and GATA-5 expression were examined in wild type (WT) HCT116 colon cancer cells, and two clones each of these cells in which both alleles of DNA methyltransferase 1 (DNMTI-KO), DNMT 3b (DNMT3b-KO), or both DNMTs were knocked out (21).” left out

[5] = system: HCT116 colon cancer cell line; assay: DAC treatment, gene expression by RT-PCR in HCT116; parameters: key to GATA-5 expression (Exp, A = DAC treatment) / GATA-6 expression (Exp, A = DAC treatment) / TFF1 expression (Exp, A = DAC treatment) / TFF2 expression (Exp, A = DAC treatment) / TFF3 expression (Exp, A = DAC treatment) / Inhibin α expression (Exp, A = DAC treatment) / Dab2 expression (Exp, A = DAC treatment) / GATA-4 expression (Exp, A = DAC treatment): −: Undetectable level; +: detectable level of expression, by RT-PCR; ++: increased expression level from +basal level
Method: as §1, §2, §3

[6] = system: LoVo colon cancer cell line; assay: DAC treatment, gene expression by RT-PCR in LoVo; parameters: key: −: Undetectable level; +: detectable level of expression, by RT-PCR; ++: increased expression level from +basal level; conditions: 5 pM DAC daily for 48 hr
Method: as §1, §2, §3

[7] = system: DLD1 colon cancer cell line; assay: DAC treatment, gene expression by RT-PCR in DLD1; parameters: key: −: Undetectable level; +: detectable level of expression, by RT-PCR; ++: increased expression level from +basal level; conditions: 5 pM DAC daily for 48 hr
Method: as §1, §2, §3

[8] = system: HT29 colon cancer cell line; assay: DAC treatment, gene expression by RT-PCR in HT29; parameters: key: −: Undetectable level; +: detectable level of expression, by RT-PCR; ++: increased expression level from +basal level; conditions: 5 pM DAC daily for 48 hr
Method: as §1, §2, §3

[9] = system: RKO colon cancer cell line; assay: DAC treatment, gene expression by RT-PCR in RKO; parameters: key to GATA-5 expression (Exp, A = DAC treatment) / GATA-6 expression (Exp, A = DAC treatment) / TFF1 expression (Exp, A = DAC treatment) / TFF2 expression (Exp, A = DAC treatment) / TFF3 expression (Exp, A = DAC treatment) / Inhibin α expression (Exp, A = DAC treatment) / Dab2 expression (Exp, A = DAC treatment) / GATA-4 expression (Exp, A = DAC treatment): −: Undetectable level; +: detectable level of expression, by RT-PCR; ++: increased expression level from +basal level
Method: as §1, §2, §3

[10] = AZ521, 5 pM DAC daily for 48 hr, RT-PCR
[11] = HCT116, 5 pM DAC daily for 48 hr, RT-PCR
[12] = 5 pM DAC daily for 48 hr, RT-PCR

## CC(/C=C/C(=O)NO)=C\[C@@H](C)C(=O)c1ccc(N(C)C)cc1 [TSA]
[1]; TSA alone
  reactivation of the silenced GATA-4 and GATA-5 genes: failed to reactivate
[1]; TSA applied with a low dose of DAC
  reactivating expression of the silenced GATA-4 and GATA-5 genes: synergistic

## Nc1ncn([C@H]2C[C@H](O)[C@@H](CO)O2)c(=O)n1 [DAC, 5-aza-2′-deoxycytidine]
[2]
  Dab2 expression (Exp, A = DAC treatment): +
  GATA-4 expression (Exp, A = DAC treatment): +
  GATA-5 expression (Exp, A = DAC treatment): +
  GATA-6 expression (Exp, A = DAC treatment): +
  Inhibin α expression (Exp, A = DAC treatment): ++
  TFF1 expression (Exp, A = DAC treatment): +
  TFF2 expression (Exp, A = DAC treatment): +
  TFF3 expression (Exp, A = DAC treatment): +
[3]; [10]
  Dab2 expression (Exp, A = DAC treatment): +
  GATA-4 expression (Exp, A = DAC treatment): +
  GATA-5 expression (Exp, A = DAC treatment): +
  GATA-6 expression (Exp, A = DAC treatment): +
  Inhibin α expression (Exp, A = DAC treatment): ++
  TFF1 expression (Exp, A = DAC treatment): +
  TFF2 expression (Exp, A = DAC treatment): −
  TFF3 expression (Exp, A = DAC treatment): +
[3]; Az521
  TFF2 re-expression after DAC treatment: did not re-express
[4]; DAC treatment, RT-PCR
  re-expression of each basally silent GATA gene, except GATA-1: re-expressed
[4]; DAC, in many instances
  low basal expression of TFF1, TFF3, inhibin α after DAC: further increased
[4]; DAC, virtually every cell line in which the gene lacked basal expression
  activation of each downstream gene (TFF1, TFF2, TFF3, inhibin α, Dab2): activated
[5]; HCT116, TFF2 promoter present
  TFF2 activation by DAC: readily activated
[5]; [11]
  Dab2 expression (Exp, A = DAC treatment): +
  GATA-4 expression (Exp, A = DAC treatment): +
  GATA-5 expression (Exp, A = DAC treatment): +
  GATA-6 expression (Exp, A = DAC treatment): +
  Inhibin α expression (Exp, A = DAC treatment): +
  TFF1 expression (Exp, A = DAC treatment): +
  TFF2 expression (Exp, A = DAC treatment): +
  TFF3 expression (Exp, A = DAC treatment): +
[6]
  Dab2 expression (Exp, A = DAC treatment): +
  GATA-4 expression (Exp, A = DAC treatment): ++^4)
  GATA-5 expression (Exp, A = DAC treatment): ++
  GATA-6 expression (Exp, A = DAC treatment): +
  Inhibin α expression (Exp, A = DAC treatment): ++
  TFF1 expression (Exp, A = DAC treatment): ++
  TFF2 expression (Exp, A = DAC treatment): +
  TFF3 expression (Exp, A = DAC treatment): ++
[7]
  Dab2 expression (Exp, A = DAC treatment): +
  GATA-4 expression (Exp, A = DAC treatment): +
  GATA-5 expression (Exp, A = DAC treatment): +
  GATA-6 expression (Exp, A = DAC treatment): +
  Inhibin α expression (Exp, A = DAC treatment): +
  TFF1 expression (Exp, A = DAC treatment): ++
  TFF2 expression (Exp, A = DAC treatment): +
  TFF3 expression (Exp, A = DAC treatment): +
[8]
  Dab2 expression (Exp, A = DAC treatment): +
  GATA-4 expression (Exp, A = DAC treatment): +
  GATA-5 expression (Exp, A = DAC treatment): +
  GATA-6 expression (Exp, A = DAC treatment): +
  TFF1 expression (Exp, A = DAC treatment): ++
  TFF2 expression (Exp, A = DAC treatment): +
  TFF3 expression (Exp, A = DAC treatment): +
[9]
  TFF2 re-expression after DAC treatment: did not re-express
[9]; [12]
  Dab2 expression (Exp, A = DAC treatment): +
  GATA-4 expression (Exp, A = DAC treatment): +
  GATA-5 expression (Exp, A = DAC treatment): +
  GATA-6 expression (Exp, A = DAC treatment): +
  Inhibin α expression (Exp, A = DAC treatment): +
  TFF1 expression (Exp, A = DAC treatment): +
  TFF2 expression (Exp, A = DAC treatment): −
  TFF3 expression (Exp, A = DAC treatment): +
[9]; gene basally silent
  Dab2 reactivation following DAC treatment: reactivated
